Results reported in patent US10072023B2, “Diarylethene compounds and uses thereof” (SWITCH MATERIALS, INC., priority 2011, dated 2018).

Assay: Absorbance at photostationary state (PSS) under simulated sunlight or 365 nm light
Type: physicochemical
Parameters: λ max: unit not given here
Details: for Absorbance at PSS, 365 nm: 365 nm light source; for Absorbance at PSS, 365 nm / Absorbance at PSS, full / Absorbance at PSS, +UV / λ max: 2.0×10^−5 M in triglyme; for sensitivity index: ratio of PSS under 365 nm light to PSS under full spectrum light (without UV blocking film); for Absorbance at PSS, full: simulated sunlight (QSUN solar simulator), no UV blocking film; for Absorbance at PSS, +UV: simulated sunlight with UV blocking film (cutoff 370 nm); for λ max: wavelength of maximum absorbance in the visible range, ring-closed isoform
Method: Absorbance at a PSS for selected compounds was measured at 2.0×10^−5 M in triglyme in the absence (full) or presence (+UV) of a UV blocking film with a UV cutoff wavelength of 370 nm (10% transmission at 370 nm), using simulated sunlight (QSUN solar simulator) as a light source, or a 365 nm light source; these PSS are reported in Tables 1.5. […] “Switch” refers to the ability (yes or no) of the compound to be reversibly converted under photochromic and electrochromic conditions between a ring-open isomer and ring-closed isomer.
A sensitivity index (SI) is a ratio of the PSS under 365 nm light to the PSS under full spectrum light (without UV blocking film). SI is an indicator of the sensitivity of the compound to the composition of the incident light (a change in the ratio of UV and visible components)—photochemical ring-opening is induced by a portion of the visible light spectrum.
Photostationary State (PSS) UV/Vis spectra are obtained using an OceanOptics™ Spectrophotometer until absorption in the visible region of the spectrum stabilizes. A 2×10^−5M solution of compound in solvent is prepared, and photofaded using visible light until absorption in the visible region of the spectrum stabilizes. The sample is then irradiated with simulated sunlight (QSUN SS-150 Solar Simulator with xenon arc lamp) until the absorption spectrum stabilizes. To obtain PSS in the presence of a UV blocking film, a second sample is prepared and irradiated as described, with a UV blocking film inserted in the light path when irradiating.

Row | SMILES | Absorbance at PSS, 365 nm | sensitivity index | Absorbance at PSS, full | Absorbance at PSS, +UV | λ max
1 | Cc1ccc(-c2ccc(-c3cc(C4=C(c5cc(-c6ccc(-c7ccc(C)s7)s6)sc5-c5ccc(C)s5)C(F)(F)C(F)(F)C4(F)F)c(-c4ccc(C)s4)s3)s2)s1 [S034, 3′,3″″′-(perfluorocyclopent-1-ene-1,2-diyl)bis(5,5″′-dimethyl-2,2′:5′,2″:5″,2″′-quaterthiophene)] | 0.468 | 1.73 | 0.271 | 0.246 | 690
2 | CCOc1ccc(-c2cc(C3=C(c4cc(-c5ccc(OCC)cc5)sc4-c4ccc(OCC)cc4)C(F)(F)C(F)(F)C3(F)F)c(-c3ccc(OCC)cc3)s2)cc1 [S091, 3,3′-(perfluorocyclopent-1-ene-1,2-diyl)bis(2,5-bis(4-ethoxyphenyl)thiophene)] | 0.287 | 1.75 | 0.164 | 0.095 | 629
3 | CC(C)(C)c1ccc(-c2cc(C3=C(c4cc(-c5ccc(C(C)(C)C)s5)sc4-c4ccc(OCCCCC(=O)O)cc4)C(F)(F)C(F)(F)C3(F)F)c(-c3ccc(OCCCCC(=O)O)cc3)s2)s1 [S141, 5,5′-(4,4′-(4,4′-(perfluorocyclopent-1-ene-1,2-diyl)bis(5′-tert-butyl-2,2′-bithiophene-5,4-diyl))bis(4,1-phenylene)bis(oxy))dipentanoic acid] | 0.377 |  | 0.282 | 0.183 | 
4 | CC(=O)c1ccc(-c2cc(C3=C(c4cc(-c5ccccc5)sc4-c4ccc(C(C)(C)C)cc4)C(F)(F)C(F)(F)C3(F)F)c(-c3ccc(C(C)(C)C)cc3)s2)cc1 [S065, 1-(4-(5-(4-tert-butylphenyl)-4-(2-(2-(4-tert-butylphenyl)-5-phenylthiophen-3-yl)-3,3,4,4,5,5-hexafluorocyclopent-1-enyl)thiophen-2-yl)phenyl)ethanone] | 0.281 | 2.04 | 0.138 | 0.054 | 625
5 | N#Cc1ccc(-c2ccc(-c3cc(C4=C(c5cc(-c6ccc(-c7ccc(C#N)s7)s6)sc5-c5cccs5)C(F)(F)C(F)(F)C4(F)F)c(-c4cccs4)s3)s2)s1 [S037, 4″,4″″″-(perfluorocyclopent-1-ene-1,2-diyl)bis(([2,2′:5′,2″:5″,2″′-quaterthiophene]-5-carbonitrile))] | 0.442 | 1.18 | 0.375 | 0.355 | 680
6 | COc1cc(OC)cc(-c2cc(C3=C(c4cc(-c5cc(OC)cc(OC)c5)sc4-c4cc(OC)cc(OC)c4)C(F)(F)C(F)(F)C3(F)F)c(-c3cc(OC)cc(OC)c3)s2)c1 [S097, 3,3′-(perfluorocyclopent-1-ene-1,2-diyl)bis(2,5-bis(3,5-dimethoxyphenyl)thiophene)] | 0.206 | 2.82 | 0.073 | 0.029 | 611
7 | Oc1ccc(-c2cc(C3=C(c4cc(-c5ccc(O)cc5)sc4-c4ccc(O)cc4)C(F)(F)C(F)(F)C3(F)F)c(-c3ccc(O)cc3)s2)cc1 [S084, 3,3′-(perfluorocyclopent-1-ene-1,2-diyl)bis(2,5-bis(4-hydroxyphenyl)thiophene)] | 0.23 | 2.56 | 0.09 | 0.051 | 625
8 | CC(C)(C)c1ccc(-c2sc(-c3ccc(C(C)(C)O)cc3)cc2C2=C(c3cc(-c4ccc(C(C)(C)O)cc4)sc3-c3ccc(C(C)(C)C)cc3)C(F)(F)C(F)(F)C2(F)F)cc1 [S067, 2,2′-((4,4′-(perfluorocyclopent-1-ene-1,2-diyl)bis(5-(4-(tert-butyl)phenyl)thiophene-4,2-diyl))bis(4,1-phenylene))bis(propan-2-ol)] | 0.182 | 2.68 | 0.068 | 0.03 | 615
9 | COc1ccc(-c2oc3ccc(OC)cc3c2C2=C(c3c(-c4ccc(OC)cc4)oc4ccc(OC)cc34)C(F)(F)C(F)(F)C2(F)F)cc1 [S083] | 0.167 | 7.26 | 0.023 | 0.008 | 550
10 | COc1ccc2c(C3=C(c4c(-c5ccc(OC)c(OC)c5)oc5cc(OC)ccc45)C(F)(F)C(F)(F)C3(F)F)c(-c3ccc(OC)c(OC)c3)oc2c1 [S155, 3,3′-(perfluorocyclopent-1-ene-1,2-diyl)bis(2-(3,4-dimethoxyphenyl)-6-methoxybenzofuran)] | 0.329 | 4.06 | 0.081 | 0.045 | 516
11 | COc1cc2oc(-c3ccc(C(C)(C)C)cc3)c(C3=C(c4c(-c5ccc(C(C)(C)C)cc5)oc5cc(OC)c(OC)cc45)C(F)(F)C(F)(F)C3(F)F)c2cc1OC [S164, 3,3′-(perfluorocyclopent-1-ene-1,2-diyl)bis(2-(4-(tert-butyl)phenyl)-5,6-dimethoxybenzofuran)] | 0.546 | 2.32 | 0.235 | 0.134 | 554
12 | COc1ccc(-c2sc(-c3cc4ccccc4s3)cc2C2=C(c3cc(-c4cc5ccccc5s4)sc3-c3ccc(OC)cc3)C(F)(F)C(F)(F)C2(F)F)cc1 [S110, 2,2′-(4,4′-(perfluorocyclopent-1-ene-1,2-diyl)bis(5-(4-methoxyphenyl)thiophene-4,2-diyl))bis(benzo[b]thiophene)] | 0.414 | 1.20 | 0.346 | 0.221 | 653
13 | COc1ccc2c(C3=C(c4c(-c5ccc(C)s5)oc5cc(OC)ccc45)C(F)(F)C(F)(F)C3(F)F)c(-c3ccc(C)s3)oc2c1 [S144, 3,3′-(perfluorocyclopent-1-ene-1,2-diyl)bis(6-methoxy-2-(5-methylthiophen-2-yl)benzofuran)] | 0.318 | 3.88 | 0.082 | 0.04 | 513
14 | c1ccc(-c2cc(-c3nc(-c4ccccc4)sc3-c3cc(-c4ccccc4)sc3-c3ccccc3)c(-c3ccccc3)s2)cc1 [S055, 4,5-bis(2,5-diphenylthiophen-3-yl)-2-phenylthiazole] | 0.191 | 4.55 | 0.042 | 0.008 | 640
15 | COCCOc1ccc(-c2sc(-c3ccc(C(C)(C)C)s3)cc2C2=C(c3cc(-c4ccc(C(C)(C)C)s4)sc3-c3ccc(OCCOC)cc3)C(F)(F)C(F)(F)C2(F)F)cc1 [S104, 4,4″-(perfluorocyclopent-1-ene-1,2-diyl)bis(5′-(tert-butyl)-5-(4-(2-methoxyethoxy)phenyl)-2,2′-bithiophene)] | 0.383 | 1.28 | 0.299 | 0.203 | 645
16 | CC(C)(C)c1ccc(-c2sc(C(C)(C)C)cc2C2=C(c3cc(C(C)(C)C)sc3-c3ccc(C(C)(C)C)s3)C(F)(F)C(F)(F)C2(F)F)s1 [S073, 3,3′-(perfluorocyclopent-1-ene-1,2-diyl)bis(5,5′-di-tert-butyl-2,2′-bithiophene)] | 0.06 | 5.71 | 0.0105 | 0.006 | 550
17 | O=C(O)c1ccc(-c2cc(C3=C(c4cc(-c5ccc(C(=O)O)s5)sc4-c4ccc(C(=O)O)s4)C(F)(F)C(F)(F)C3(F)F)c(-c3ccc(C(=O)O)s3)s2)s1 [S024] | 0.102 | 5.10 | 0.02 | 0.018 | 650
18 | COc1ccc(-c2sc(-c3ccc(OCCOc4ccc(N(c5ccc(Cl)cc5)c5ccc(Cl)cc5)cc4)cc3)cc2C2=C(c3cc(-c4ccc(OCCOc5ccc(N(c6ccc(Cl)cc6)c6ccc(Cl)cc6)cc5)cc4)sc3-c3ccc(OC)cc3)C(F)(F)C(F)(F)C2(F)F)cc1 [S090, 4,4′-(((((4,4′-(perfluorocyclopent-1-ene-1,2-diyl)bis(5-(4-methoxyphenyl)thiophene-4,2-diyl))bis(4,1-phenylene))bis(oxy))bis(ethane-2,1-diyl))bis(oxy))bis(N,N-bis(4-chlorophenyl)aniline)] | 0.183 | 1.71 | 0.107 | 0.058 | 624
